Measurements published in patent publication US4110474A, “Tetramethylpentane blood substitutes” (Suntech, Inc., priority 1977, dated 1978).
Like-named read-outs stand apart in the source and are kept apart here.

Details: mouse, in vivo
Description: Mice were injected with the various emulsions. The mice were killed at intervals thereafter, the liver and spleen analyzed, and the percentage of original amount of PF material injected and still in the liver and spleen was determined.

body retention: lack body retention characteristics
% FC (Of Injected Dose) in LIVER (2880 min): 15%
% FC (Of Injected Dose) in SPLEEN (2880 min): 1.4%
% FC (Of Injected Dose) in LIVER (10080 min): 12%
% FC (Of Injected Dose) in SPLEEN (10080 min): 6%
% FC (Of Injected Dose) in LIVER (20160 min): 9.3%
% FC (Of Injected Dose) in SPLEEN (20160 min): 9.2%
% FC (Of Injected Dose) in LIVER (41760 min): 2.3%
% FC (Of Injected Dose) in SPLEEN (41760 min): 2.7%
Substance: perfluoromethylpentane
